This note sets out measurements from patent US7258999B2, “PTH responsive gene” (Wyeth, priority 2002, dated 2007).

Assay [1] deals with PAIGB expression. Nature of the assay: Real time PCR of PAIGB expression in rat tibia. The class given is in vivo. The method, then:
RNA isolation was performed on bone as well as from different cell lines used during experimentation. RNA was isolated from rat tibiae as follows. Following euthanasia by CO2 asphyxiation tibiae were dissected free of soft tissue as rapidly as possible with autoclaved instruments, wiped with autoclaved gauze soaked in ethanol and the epiphysis broken off at the proximal growth plate by hand and discarded. The tibia was then cut transversely with bone cutters just distal to the proximal growth plate and just proximal to the distal tibia-fibula junction to expose the trabecular bone and the bone marrow. The trabecular bone and marrow cavity was flushed with ice cold sterile PBS using a Lancer liquid transfer pipette (Oxford Labware, St. Louis, Mo.) to remove the marrow and the cleaned bone placed in liquid nitrogen.
Applicants performed multiplex real time PCR (TaqMan) analysis on previously DNAsed samples using gene specific probe and primers and 18S ribosomal RNA probe and primer sets purchased from Applied Biosystem. (Foster City, Calif.) The samples were DNAsed according to the protocol provided by Ambion (DNA-free kit). TaqMan probe and primers for PAIGB was identify using Primer Express computer program. The sequence for rat PAIGB TaqMan probe was 6FAM-5′[…] (SEQ ID NO: 16) forward and reverse primers were 5′[…] 3′ (SEQ ID NO:17) and 5′ […] 3′ (SEQ ID NO:18) respectively. The final concentrations for probes were 500 nM and 40 nM for PAIGB and 18S ribosomal RNA or GAPDH respectively. The concentrations of the primers were 500 nM for PAIGB forward and reversed primers while 18S primers were 10 and 20 nM for forward and reversed primer respectively or 40 nM for GAPDH primers. Standards for rat samples were made from rat tibia or brain RNA in the range of 250 ng to 0.1 ng, while standards for mouse specific TaqMan were made from mouse brain RNA and human standards from human brain RNA (Clonetech, Palo Alto, Calif.) spanning the same range of concentration. Primers and probes for mouse PAIGB were: forward 5′ […] 3′ (SEQ ID NO:19), reverse, 5′ […] 3′ (SEQ ID NO:20) anti-sense and probe 5′ 6FAM-[…] (SEQ ID NO:21). Primers and probes for human PAIGB were: forward 5′ […] 3′ (SEQ ID NO:22), reverse 5′ […] 3′(SEQ ID NO:23), and PROBE 5′ 6FAM-[…] 3′(SEQ ID NO: 24). The Taq-man analysis was done using ABI 7700 Sequence Detector under following conditions: 30 min at 48° C., 10 min at 95° C. and 40 cycles of 15 sec at 95° C. and 60 sec at 60° C. Analysis of real-time PCR analysis was performed using (Sequence Detector, Macintosh) program.
The initial experiments measured the expression of PAIGB in the rat tibia after 8 days of treatment. In order to examine the time course of PTH action on PAIGB expression, experiments were performed on rats treated with intermittent PTH injections (40 μg/kg body weight) and tibias were collected for RNA isolation as well as evaluation in BMD changes. Time points of sample collection were 6 hours, 2 days, 4 days and 8 days after intermittent PTH treatment. Real time PCR analysis was performed on isolated RNA samples using above described primers.
The observed increase in PAIGB expression in bone treated with PTH is dose-dependent (FIG. 10B). OVX rats with established osteopenia were treated with increasing concentration of human PTH (1-34): 5, 10, 20, 40 and 80 μg/kg of body weight for 8 days with one daily injection. Six hours after last injection animals were scarified and bone samples were harvested for RNA isolation as described in Experimental Procedure section.

Assay [2] relates to PAIGB expression. The experiment in a line: RADE differential display of rat tibia RNA after PTH administration. The class given is in vivo. The note with it: eight days. The method, then:
Total RNA was isolated and each RNA sample was then treated with 20 units of DNAse (Ambion, Austin, Tex.). After RNA cleaning, samples were split into three reverse transcription (RT) reactions. Each RT reaction contained 4 μg RNA, 1000 units SuperScript II RT (Gibco), 100 μM dNTPs and 0.2 μM anchor primer in a final volume of 100 μl. Anchor primers had the sequence (5′→3′) T11A, T11C, or T11G. For differential display each cDNA sample was subjected, in duplicate, to 80 PCR reactions using the appropriate anchor primer and one of 80 arbitrary primers (HAPs 1-80; Genhunter). PCR reactions contained in a final volume of 20 ul, 20 ng cDNA, 2 μM dNTPs, 0.2 μM anchor primer, 0.2 μM arbitrary primer, 1 unit Taq polymerase (Applied Biosystems (AB), Foster City, Calif.), and 2.5 μCi [α-^33P]dATP (2000 Ci/mmole). PCR conditions were as follows: 1 cycle of 92° C./2′, 40 cycles of [92° C./15″, 40° C./2′, 72° C./30″], and 1 cycle of 72° C./5′. PCR samples were then loaded onto a 50 cm 6% sequencing gel and run at 200 volts constant. Differentially expressed bands were excised from the dried gel. […]
Female Wister rats 4 weeks of age were treated with vehicle (saline) and human PTH (1-34) at a dose of 40 μg/kg of body weight for eight days. […] Three weeks post OVX total BMD was measured to determine if osteopenia was established. […]

For the substance human PTH (1-34), the “increase of PAIGB expression in bone” value was 10 fold in the assay with PAIGB expression [1] (40 μg/kg, one daily injection, 8 days, OVX rats) and 20 fold in the assay on PAIGB expression [1] (80 μg/kg, one daily injection, 8 days, OVX rats). Further, the “effect on PAIGB expression in bone” value in the assay on PAIGB expression [1] (5, 10 and 20 μg/kg, one daily injection, 8 days, OVX rats) is listed as “did not have any effect”. For the same substance, the “PAIGB expression over vehicle treated rats” value with PAIGB expression [1] (4 days of intermittent injection) amounted to 20 fold. Also, the “effect on PAIGB expression in tibia” value with PAIGB expression [1] (intermittent 40 μg/kg, days 4 and 8, compared with day 2) is given as “at the same magnitude”. The “increase of PAIGB expression in tibia” value in the assay on PAIGB expression [1] (intermittent 40 μg/kg, two days) was about 20 fold. Also, the “PAIGB expression in bone RNA (RADE)” value is recorded as “did not induce any changes” in the assay with PAIGB expression [2] (continuous administration, 40 μg/kg/day) and “induced” with PAIGB expression [2] (intermittent injection, 40 μg/kg).
